Data as given in patent US9061984B2 (University of Louisville Research Foundation, Inc., priority 2008, dated 2015).
≈ marks a conversion by molar mass, not a printed value. Like-named read-outs stand apart in the source and are kept apart here.

Columns and labels:
VERO cells = test: Cell growth inhibition bioassay (sulforhodamine B); assay type: cell-based, African Green Monkey; conditions: Chlorocebus sabaeus, Vero; 48 h, SRB; read-out: GI50 in indicated cell line: VERO
Method in brief: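 Cells were exposed to compound alongside matched solvent controls, then stained with sulforhodamine B. Percent growth inhibition was calculated from dye absorbance against the control.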

[1] = Toxicity to peritoneal macrophages (Trypan Blue count); assay type: cell-based, BALB/C mouse; conditions: BALB/C, mouse, Cytotoxicity Macrophages IC50
[2] = tested on: Trypanosoma cruzi (Tulahuen C4); test: In vitro anti-T. cruzi activity (β-galactosidase CPRG colorimetric assay in VERO monolayer); assay type: cell-based; conditions: for IC50: Trypanosoma cruzi, TULAHUEN, Vero

C(=N/Nc1ncnc2sc3c(c12)CCCC3)/c1ccccn1 [II-21]
GI50 (VERO cells): 0.156 µg/mL (≈ 0.504 µM)
IC50 at 48 h [1]: 2000 nM
Selectivity Index Lab B ([2]; IC50, VERO/IC50, T. cruzi, Lab B): 0.1
IC50 ([2]; Lab A, read-out: T. cruzi IC50 Lab A): 0.1 µg/mL (≈ 0.323 µM)
IC50 ([2]; Lab B, read-out: T. cruzi IC50 Lab B): 1.2 µg/mL (≈ 3.88 µM)
